From PubChem BioAssay (NCI) come the findings set out here.

Holding throughout (experiment): NCI tumour cell line growth inhibition, 48 h
For experiment [1], the system named is A549 NSCLC.
Experiment [2] concerns ACHN renal.
The subject of experiment [3] is CAKI-1 renal.
Experiment [4] concerns CCRF-CEM leukemia.
For experiment [5], the system named is HCC-2998 colon.
For experiment [6], the system named is M14 melanoma.
Experiment [7] concerns PC-3 prostate.
Experiment [8] deals with RXF 393 renal.
In experiment [9] the test system is SW-620 colon.
Experiment [10] concerns UACC-257 melanoma.

Several values for one entry are separate records, joined by “and”; a condition that tells them apart may be missing. Equal values may be shown once.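 Assay format: 96-well plates, 48-hour exposure. GI50 marks 50% less growth. At the TGI there is no net growth.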

On to `CO[C@H]1CC(c2ccc[nH]2)=N[C@]12O[C@@H](C)C[C@@H]1CCCCCCCc3ccc([nH]3)[C@H]12`, for which the GI50 in [1] is 1.04 µM; in experiment [2], 1.22 µM; in [3] it was 1.18 µM; in experiment [4], 0.704 µM; in experiment [5], 0.814 µM; in experiment [6], 0.898 µM. Moreover, the GI50 in [7] is 0.78 µM; in [8] it was 0.807 µM; in experiment [9], 1.05 µM; in experiment [10], 1.33 µM. Besides, the TGI in experiment [1] is 7.31 µM; in [2], 4.76 µM; in experiment [3], 11.3 µM; in experiment [4], above 30.4 µM; in experiment [5], 5.54 µM; in [6], 3.35 µM. The TGI in [7] was found to be 20.7 µM; in experiment [8], 7.53 µM; in [9] it was 7.96 µM; in experiment [10], 7.63 µM.

In the case of `Clc1nc(Cl)c2ncn(Cc3ccc(Cn4cnc5c(Cl)nc(Cl)nc54)cc3)c2n1`, the GI50 is 11.5 µM in experiment [1]; 5.16 µM in experiment [2]; 13.6 µM in experiment [3]; 11 µM in experiment [5]; 11.2 µM in experiment [6]; 1.56 µM in experiment [7]. Moreover, in [10], the GI50 was 4.87 µM. In addition, the TGI in experiment [1] was found to be 25.5 µM; in experiment [2] it was 20.4 µM; in [3] it was 27.8 µM; in experiment [4], 1.84 µM; in experiment [5], 24 µM; in [6], 27 µM. For the same compound, the TGI was determined as 16.3 µM in experiment [7], 0.555 µM in experiment [8], 8.91 µM in [9] and 30.5 µM in experiment [10].

For `COC1=C2CC(C)CC(OC)C(O)C(C)/C=C(\C)C(OC(N)=O)C(OC)/C=C\C=C(/C)C(=O)NC(=C(/C=N/N3CCCCC3)C1=O)C2=O` (stereo not given), the TGI was found to be 46.7 µM in experiment [1]; 28.8 µM in experiment [2]; 37 µM in experiment [3]; 7.85 µM in experiment [4]; 18.9 µM in experiment [5]; 37.4 µM in [6]. Also, the TGI was above 100 µM in [7], 14.3 µM in experiment [8], 8.7 µM in experiment [9] and 27.7 µM in [10].

Turning to `COc1cc(Cl)cc(-c2nn(-c3cccc(NC(=O)Nc4ccc(Cl)c(C(F)(F)F)c4)c3)cc2-c2ccncc2)c1`, the GI50 in experiment [1] was 0.678 µM; in [2] it was 0.762 µM; in experiment [3], 0.816 µM; in experiment [4], 0.613 µM; in experiment [5], 2.91 µM; in experiment [6], 1.33 µM. The GI50 in [7] is 0.342 µM; in experiment [8] it was 1.71 µM; in [9] it was 1.61 µM; in [10], 1.89 µM. Besides, the TGI in experiment [1] is 10.8 µM; in [2], 10.2 µM; in [3], 9.43 µM; in experiment [4] it was 3.65 µM; in experiment [5], 9.02 µM; in experiment [6] it was 3.47 µM. The TGI in experiment [7] was determined as 2.12 µM; in experiment [8], 4.42 µM; in experiment [9], 10.5 µM; in experiment [10], 4.93 µM.

For the compound `C=CCCCc1ccc(C(O)CCCCCCCCCCCC)o1` (stereo not given), the GI50 in experiment [1] was 30.4 µM; in experiment [2], 16.8 µM; in experiment [3] it was 17.4 µM; in experiment [4], 23.1 µM; in experiment [5] it was 22.1 µM; in experiment [6], 18.9 µM. For the same compound, the GI50 in experiment [7] is 19.8 µM; in experiment [8] it was 19.6 µM; in [9], 22.8 µM; in [10], 21.8 µM. The TGI in experiment [1] turned out to be 96.3 µM; in experiment [2], 30.4 µM; in experiment [3] it was 33.2 µM; in [4] it was 56.8 µM; in experiment [5], 55 µM; in [6], 38.9 µM. In addition, the TGI in [7] was determined as 46 µM; in experiment [8], 39.3 µM; in experiment [9] it was 62 µM; in experiment [10], 48.2 µM.

In the case of `CC(=O)Oc1ccc(C(c2ccc(OC(C)=O)cc2)c2ccccn2)cc1`, the GI50 in experiment [1] is 49.7 µM; in experiment [2], 36.8 µM; in experiment [3], 46.8 µM; in [4], 43 µM; in experiment [5] it was 11.3 µM; in experiment [6] it was 56.6 µM. Also, the GI50 in experiment [7] is 16.3 µM; in [8] it was 3.67 µM. In addition, the TGI in experiment [1], in [2], in experiment [3], in [4], in experiment [5] and in experiment [6] was above 100 µM each time. Moreover, the TGI in experiment [7] was above 100 µM; in experiment [8], 96.9 µM and > 95.7 µM; in experiment [9], above 100 µM; in experiment [10], above 100 µM.
